# How the values were obtained:
# SARS-CoV-2 S protein = SARS-CoV-2 S protein (Severe acute respiratory syndrome coronavirus 2, UniProt P0DTC2); assay: cell-based; settings: HEK-293T, read-out: IC90, inhibition of S-mediated fusion
# SARS-CoV-2 = settings: 72 h
compound,measurement,setting,value
CC[C@H](C)[C@H](NC(=O)[C@H](C)NC(=O)[C@H](CCC(=O)O)NC(=O)[C@H](CCC(=O)O)NC(=O)[C@H](CC(C)C)NC(=O)[C@H](CCCCN)NC(=O)[C@H](CCCCN)NC(=O)[C@H](CCSC)NC(=O)[C@H](CCC(=O)O)NC(=O)[C@H](Cc1ccc(O)cc1)NC(=O)[C@H](CCC(=O)O)NC(=O)[C@H](CC(C)C)NC(=O)[C@H](CC(=O)O)NC(=O)[C@H](CC(C)C)NC(=O)[C@H](Cc1ccccc1)NC(=O)[C@@H](NC(=O)[C@@H](NC(=O)[C@H](CC(N)=O)NC(=O)[C@@H](NC(=O)[C@H](CCC(N)=O)NC(=O)[C@H](CC(=O)O)NC(=O)[C@H](CC(C)C)NC(=O)[C@H](CO)NC(C)=O)[C@@H](C)CC)C(C)C)[C@@H](C)O)C(=O)N[C@@H](CCCCN)C(=O)N[C@@H](CCCCN)C(=O)N[C@@H](CC(C)C)C(=O)N[C@@H](CCC(=O)O)C(=O)N[C@@H](CCC(=O)O)C(=O)N[C@@H](CO)C(=O)N[C@@H](Cc1ccc(O)cc1)C(=O)N[C@H](C(=O)N[C@@H](CC(=O)O)C(=O)N[C@@H](CC(C)C)C(=O)N[C@@H](CCCCN)C(=O)N[C@@H](CCC(=O)O)C(=O)N[C@@H](CC(C)C)C(=O)NCC(=O)N[C@@H](CO)C(=O)NCC(=O)N[C@@H](CO)C(=O)NCC(=O)N[C@@H](CSCC(=O)NCCOCCOCCOCCOCCC(=O)O[C@H]1CC[C@@]2(C)C(=CC[C@H]3[C@@H]4CC[C@H]([C@H](C)CCCC(C)C)[C@@]4(C)CC[C@@H]32)C1)C(N)=O)[C@@H](C)CC [EK1 lipopeptide],IC90,SARS-CoV-2 S protein,> 900 nM
same,toxicity (MTT assay),Vero E6 cells,< 20%
same,IC50,SARS-CoV-2,~80 nM

# Source: patent US20250257099A1 (priority 2022, published 2025)
